As a reminder, the IC50 is the concentration at which inhibition is half-maximal.

This is an account of results in US11485713B2, “Androgen receptor modulators and methods for their use” (ESSA Pharma, Inc., priority 2018, dated 2022).

One series has as its system LNCaP ARE-Luc. Description: Luciferase assay in LNCaP cell lysates (LNCaP ARE-Luc). Format: cell-based. The settings on record: Homo sapiens, Firefly Luciferase Assay System, read-out: LNCaP ARE-Luc % inhibition IC50 Ranges. As to the method:
Lysates were thawed on ice then collected into V-bottom 96-well tissue culture plates. Lysates were centrifuged at 4° C. for 5 minutes at 4000 rpm. To measure luminescence of LNCaP cell lysates the Firefly Luciferase Assay System (Promega) was employed, according to manufacturer's protocol. Relative luminescence units (RLU) in cell lysates were detected for 10 seconds using Promega GoMax-Multi Detection Luminometer (Promega).
Statistical analyses were performed using GraphPad Prism (Version 6.01 for Windows; La Jolla, Calif., USA). Comparisons between treatment and control groups were compared using Two-Way ANOVA with post-hoc Dunnett's and Tukey's tests. Differences were considered statistically significant at P values less than 0.05. Densitometric quantification of relative AR levels was determined by Image.

Series [1] is described as follows: Microsomal stability assay, MLM. Format: in vitro ADME. To be noted: mouse, pH 7.4, 1 μM test compound, 0.5 mg/mL liver microsomes protein, 37° C., 0-60 min, read-out: MLM +/− NADPH: Clint (μL/min/mg protein). The text has this: (§1) Microsomal Stability Assay: Microsomal stability assay is a widely used in vitro model to characterize the metabolic conversion by phase I enzymes, such as cytochrome P450 (CYP) enzymes. Since metabolism is known to be highly variable in different species, microsomal stability assay is commonly run in multiple species. Metabolic stability of testing compound can be evaluated using human, rat, mouse, or other animal liver or intestine microsomes to predict intrinsic clearance.
(§2) The assay was carried out in 96-well microtiter plates at 37° C. Reaction mixtures (25 μL) contained a final concentration of 1 μM test compound, 0.5 mg/mL liver microsomes protein, and 1 mM NADPH and/or 1 mM UDPGA (with alamethicin) in 100 mM potassium phosphate, pH 7.4 buffer with 3 mM MgCl2. The incubation was done with N=1, but duplicate incubation at each time point can be prepared if necessary. At each of the time points (for example, 0, 15, 30, and 60 minutes), 150 μL of quench solution (100% acetonitrile with 0.1% formic acid) with internal standard was transferred to each well. Besides the zero minute controls, mixtures containing the same components except the NADPH can also be prepared as the negative control. Verapamil was included as a positive control to verify assay performance. Plates were sealed, vortexed, and centrifuged at 4° C. for 15 minutes at 4000 rpm. The supernatant is transferred to fresh plates for LC/MS/MS analysis.
(§3) Summarized conditions: [Compound]=1 μM, [LM]=0.5 mg/mL, [NADPH]=1 mM and/or [UDPGA]=1 mM, Buffer=100 mM Potassium Phosphate, pH 7.4 with 3 mM MgCl2, Time=0, 15, 30, and 60 min, and Temperature=37° C.
(§4) All samples were analyzed on LC/MS/MS using an AB Sciex API 4000 instrument, coupled to a Shimadzu LC-20AD LC Pump system. Analytical samples were separated using a Waters Atlantis T3 dC18 reverse phase HPLC column (20 mm×2.1 mm) at a flow rate of 0.5 mL/min. The mobile phase consisted of 0.1% formic acid in water (solvent A) and 0.1% formic acid in 100% acetonitrile (solvent B).
(§5) The extent of metabolism is calculated as the disappearance of the test compound, compared to the 0-min time incubation. Initial rates are calculated for the compound concentration and used to determine half-life (t½) values and subsequently, the intrinsic clearance (Clint). Clint=(0.693)(1/t½ (min))(g of liver/kg of body weight)(mL incubation/mg of microsomal protein)(45 mg of microsomal protein/g of liver weight)

A short description of series [2]: Microsomal stability assay, HLM. Type of series: in vitro ADME. To be noted: human, pH 7.4, 1 μM test compound, 0.5 mg/mL liver microsomes protein, 37° C., 0-60 min, read-out: HLM +/− NADPH: Clint (μL/min/mg protein).
Excerpt: as §1, §2, §3, §4, §5
On the technique in general: Liver microsomes are vesicles of endoplasmic reticulum, rich in cytochrome P450 enzymes.

The structures appear in SMILES notation.

Consider `Cc1cc(C(C)(C)c2ccc(OCC(=O)CNS(C)(=O)=O)cc2)ccc1OCCCCl` [Compound A1], for which the IC50 with LNCaP ARE-Luc is < 0.1 µM. Besides, the microsomal CLint at 1 μM in series [1] and in series [2] was ≥ 48 µL/min/mg in each case.
Take `Cc1cc(OCCCCl)ccc1C(C)(C)c1ccc(OCC(=O)CNS(C)(=O)=O)cc1` [Compound A2]: in the series with LNCaP ARE-Luc, the IC50 lay within 0.1 to 0.25 µM. The microsomal CLint at 1 μM in series [1] and in series [2] was ≥ 48 µL/min/mg throughout.
Regarding `CC(C)(c1ccc(OCC(=O)CNS(C)(=O)=O)cc1)c1ccc(OCCCCl)c(Cl)c1` [Compound A5], in the series on LNCaP ARE-Luc, the IC50 was < 0.1 µM. In addition, the microsomal CLint at 1 μM in series [1] and in series [2] was ≥ 48 µL/min/mg each time.
Turning to `Cc1cc(C(C)(C)c2ccc(OCCCCl)cc2)ccc1OCC(=O)CNS(C)(=O)=O` [Compound A9], the IC50 in the series on LNCaP ARE-Luc was ≥ 0.25 µM. Besides, the microsomal CLint at 1 μM in series [1] and in series [2] was ≥ 48 µL/min/mg each time.
In the case of `CC(C)(c1ccc(OCCCCl)cc1)c1ccc(OCC(=O)CNS(C)(=O)=O)c(Cl)c1` [Compound A13], in the series on LNCaP ARE-Luc, the half-inhibitory concentration (IC50) was ≥ 0.25 µM. The microsomal CLint at 1 μM in series [1] and in series [2] was ≥ 48 µL/min/mg in each case.
Regarding `CS(=O)(=O)NCC(=O)COc1ccc(Cc2cc(Cl)c(OCCCCl)c(Cl)c2)cc1` [Compound A21], in the series on LNCaP ARE-Luc, the IC50 is ≥ 0.25 µM. For the same compound, the microsomal CLint at 1 μM in series [1] and in series [2] was ≥ 48 µL/min/mg throughout.
Regarding `CN(c1ccc(OCC(=O)CNS(C)(=O)=O)cc1)c1cc(Cl)c(OCCCCl)c(Cl)c1` [Compound A23], the 50% inhibitory concentration (IC50) with LNCaP ARE-Luc is ≥ 0.25 µM. Moreover, the microsomal CLint at 1 μM in series [1] and in series [2] was ≥ 48 µL/min/mg in each case.
Take `CS(=O)(=O)NCC(=O)COc1ccc(-c2cc(Cl)c(OCC(O)CCl)c(Cl)c2)cc1` (stereo not drawn) [Compound A25]: the IC50 in the series on LNCaP ARE-Luc was ≥ 0.25 µM. Moreover, the microsomal CLint at 1 μM in series [1] and in series [2] was ≥ 48 µL/min/mg in each case.
In the case of `CC(C)(c1ccc(NCC(=O)CNS(C)(=O)=O)cc1)c1cc(Cl)c(OCCCCl)c(Cl)c1` [Compound A27], the half-maximal inhibitory concentration (IC50) in the series on LNCaP ARE-Luc is ≥ 0.25 µM. The microsomal CLint at 1 μM in series [1] is 12 to 48 µL/min/mg; in series [2] it was ≥ 48 µL/min/mg.
The matching figures for `CN(CC(=O)CNS(C)(=O)=O)c1ccc(C(C)(C)c2cc(Cl)c(OCCCCl)c(Cl)c2)cc1` [Compound A28]: ≥ 0.25 µM, 12 to 48 µL/min/mg and 12 to 48 µL/min/mg.
The matching figures for `CC(C)NC(=O)COc1ccc(C(C)(C)c2cc(Cl)c(OCCCCl)c(Cl)c2)cc1` [Compound A30]: ≥ 0.25 µM, < 12 µL/min/mg and 12 to 48 µL/min/mg.
The matching figures for `CC(C)(c1ccc(OCC(=O)CNS(C)(=O)=O)cc1)c1cc(Cl)c(CCCCCl)c(Cl)c1` [Compound A34]: ≥ 0.25 µM, ≥ 48 µL/min/mg and ≥ 48 µL/min/mg.
On to `CC(C)(c1ccc(OCC(=O)CNS(C)(=O)=O)cc1)c1cc(Cl)c(OCc2cccc(Cl)c2)c(Cl)c1` [Compound A37], for which the 50% inhibitory concentration (IC50) with LNCaP ARE-Luc is ≥ 0.25 µM. Moreover, the microsomal CLint at 1 μM in series [1] and in series [2] was ≥ 48 µL/min/mg in each case.
As for `CC(C)(c1ccc(OCC(N)=O)cc1)c1cc(Cl)c(OCCCCl)c(Cl)c1` [Compound A42], in the series on LNCaP ARE-Luc, the IC50 is ≥ 0.25 µM. The values for the microsomal CLint at 1 μM in series [1] and in series [2] were < 12 µL/min/mg and 12 to 48 µL/min/mg, respectively.
On the same counts, the results for `CS(=O)(=O)NCC(=O)COc1ccccc1Cc1cc(Cl)c(OCCCCl)c(Cl)c1` [Compound A49] are ≥ 0.25 µM, ≥ 48 µL/min/mg and ≥ 48 µL/min/mg.
Regarding `CC(=O)NCC(=O)COc1ccc(C(C)(C)c2cc(Cl)c(OCCCCl)c(Cl)c2)cc1` [Compound A65], the IC50 with LNCaP ARE-Luc was ≥ 0.25 µM. The microsomal CLint at 1 μM in series [2] is ≥ 48 µL/min/mg.
On the same counts, the results for `CN(CC(=O)COc1ccc(C(C)(C)c2cc(Cl)c(OCCCCl)c(Cl)c2)cc1)S(C)(=O)=O` [Compound A69] are ≥ 0.25 µM and ≥ 48 µL/min/mg.
The matching figures for `CC(C)N(c1ccc(OCC(=O)CNS(C)(=O)=O)cc1)c1cc(Cl)c(OCCCCl)c(Cl)c1` [Compound A70]: ≥ 0.25 µM and ≥ 48 µL/min/mg.
On the same counts, the results for `CC(=O)N(c1ccc(OCC(=O)CNS(C)(=O)=O)cc1)c1cc(Cl)c(OCCCCl)c(Cl)c1` [Compound A71, N-(3,5-dichloro-4-(3-chloropropoxy)phenyl)-N-(4-(3-(methylsulfonamido)-2-oxopropoxy)phenyl)acetamide] are ≥ 0.25 µM and ≥ 48 µL/min/mg.
On to `CS(=O)(=O)NCC(=O)COc1ccc(-c2cc(Cl)c(OCCCCl)c(Cl)c2)cc1` [Compound A73, N-(3-((3′,5′-dichloro-4′-(3-chloropropoxy)-[1,1′-biphenyl]-4-yl)oxy)-2-oxopropyl)methanesulfonamide], for which the IC50 in the series with LNCaP ARE-Luc was ≥ 0.25 µM. The microsomal CLint at 1 μM in series [2] fell in the range of 12 to 48 µL/min/mg.
The matching figures for `CS(=O)(=O)NCC(=O)COc1ccc(CCc2cc(Cl)c(OCC(O)CCl)c(Cl)c2)cc1` (stereo not drawn) [Compound A75, N-(3-(4-(3,5-dichloro-4-(3-chloro-2-hydroxypropoxy)phenethyl)phenoxy)-2-oxopropyl)methanesulfonamide]: 0.1 to 0.25 µM and ≥ 48 µL/min/mg.
The matching figures for `CS(=O)(=O)NCC(=O)CCOc1ccc(-c2cc(Cl)c(OCCCCl)c(Cl)c2)cc1` [Compound A76]: ≥ 0.25 µM and 12 to 48 µL/min/mg.
As to `CC(C)(c1cccc(OCC(=O)CNS(C)(=O)=O)c1)c1ccc(Cl)c(OCCCCl)c1Cl` [Compound A77], the IC50 in the series on LNCaP ARE-Luc is < 0.1 µM. Besides, the microsomal CLint at 1 μM in series [1] is 12 to 48 µL/min/mg; in series [2] it was < 12 µL/min/mg.
On to `CC(C)(c1ccc(OCC(=O)CNS(C)(=O)=O)cc1)c1cc(Cl)c(OCc2ccccc2Cl)c(Cl)c1` [Compound A79], for which the IC50 with LNCaP ARE-Luc was ≥ 0.25 µM. Besides, the microsomal CLint at 1 μM in series [2] was ≥ 48 µL/min/mg.
The matching figures for `CC(C)(c1ccc(OCC(=O)NNS(C)(=O)=O)cc1)c1cc(Cl)c(OCCCCl)c(Cl)c1` [Compound A80]: ≥ 0.25 µM and 12 to 48 µL/min/mg.
The matching figures for `CC(C)(c1ccc(C(=O)CCCNS(C)(=O)=O)cc1)c1cc(Cl)c(OCCCCl)c(Cl)c1` [Compound A84]: ≥ 0.25 µM and 12 to 48 µL/min/mg.
On the same counts, the results for `CC(=O)C(=O)Nc1ccc(C(C)(C)c2cc(Cl)c(OCCCCl)c(Cl)c2)cc1` [Compound A85] are ≥ 0.25 µM and ≥ 48 µL/min/mg.
Turning to `CC(C)(c1ccc(OCC(=O)C(F)(F)F)cc1)c1cc(Cl)c(OCCCCl)c(Cl)c1` [Compound A91, 3-(4-(2-(3,5-dichloro-4-(3-chloropropoxy)phenyl)propan-2-yl)phenoxy)-1,1,1-trifluoropropan-2-one], the 50% inhibitory concentration (IC50) with LNCaP ARE-Luc was ≥ 0.25 µM. In addition, the microsomal CLint at 1 μM in series [2] is < 12 µL/min/mg.
The matching figures for `CC(C)(c1ccc(NC(=O)C(=O)C(F)(F)F)cc1)c1cc(Cl)c(OCCCCl)c(Cl)c1` [Compound A93]: ≥ 0.25 µM and < 12 µL/min/mg.
The matching figures for `CC(C)(c1ccc(OC(F)(F)C(=O)CCNS(C)(=O)=O)cc1)c1cc(Cl)c(OCCCCl)c(Cl)c1` [Compound A94, N-(4-(4-(2-(3,5-dichloro-4-(3-chloropropoxy)phenyl)propan-2-yl)phenoxy)-4,4-difluoro-3-oxobutyl)methanesulfonamide]: ≥ 0.25 µM and ≥ 48 µL/min/mg.
Take `CC(O)(CCl)COc1c(Cl)cc(C(C)(C)c2ccc(NC(=O)C(=O)C(F)(F)F)cc2)cc1Cl` (stereo not drawn) [Compound A95]: the IC50 with LNCaP ARE-Luc is ≥ 0.25 µM. Moreover, the microsomal CLint at 1 μM in series [2] was < 12 µL/min/mg.
